These results are taken from patent US20250122397A1, “FOOD SAFE AQUEOUS INKJET COMPOSITIONS” (Canon Production Printing Holding B.V., priority 2023, published 2025).

Structures are written as SMILES.

The data set in a line: Viscosity, Haake Rheostress RS 600 rheometer, flat plate geometry. The data set is classed as physicochemical. The settings on record: for Viscosity: 1.5 mol/kg aqueous Mg-salt solution, 25° C. Here is the method: The viscosity is measured using a Haake Rheometer, type Haake Rheostress RS 600, with a flat plate geometry at a temperature of 25° C. unless otherwise indicated. The viscosity is measured at shear rates (i) of between in the range of between 10 s^−1 and 1000 s^−1, unless otherwise indicated.

Regarding `O=[N+]([O-])[O-].O=[N+]([O-])[O-].[Mg+2]` [compound 2, Mg-nitrate, reference compound], the Viscosity is listed as 4.6 mPas.
The same measure, in the same setting: with `O=C([O-])CCCCC(=O)[O-].[Mg+2]` [compound 15, Mg-adipate] the figure was 8.8 mPas; with `O=S(=O)([O-])[O-].[Mg+2]` [compound 1, Mg-sulfate, reference compound], 3.2 mPas.
On to `CC(=O)CCC(=O)[O-].CC(=O)CCC(=O)[O-].[Mg+2]` [compound 14, Mg-levulinate], for which the Viscosity stood at 10.3 mPas. Besides, the “viscosity relative to the jettable range” value (jettable range typically between 2 and 8 mPas, 1.5 mol/kg solution) is recorded as “outside the jettable range”.
With `O=C([O-])CCC(=O)[O-].[Mg+2]` [compound 10, Mg-succinate], the Viscosity was found to be 5.0 mPas.
With `C=C(CC(=O)[O-])C(=O)[O-].[Mg+2]` [compound 8, Mg-itaconate], the Viscosity is on record as 5.5 mPas.
